Experimental data published in patent US11478445B2, “Method for treating acute myeloid leukemia” (Bionomics Limited, priority 2017, dated 2022).
“Also recorded” adds a separate entry of the source.

Columns and labels:
Format in all cases: cell-based, human
[1] = system: healthy control (HC) BMMNC samples; experiment: Viability (Annexin V/7AAD) assay, healthy control samples
Procedure: (§1) Cryopreserved mononuclear cells (MNC from BM or leukapheresis samples) were thawed in a water bath at 37° C. and cell suspension transferred to a 50 mL tube. 20 mL of IMDM media (Sigma, 13390) supplemented with 20% FBS (JRH Biosciences), 50 U/mL DNase I (Sigma), 100 IU/mL penicillin (Sigma), 100 μg/mL streptomycin (Sigma) and 2 mM L-glutamine (Sigma) was added dropwise to the cells while the tube was being vortexed slowly (or mixed by hand). The cells were centrifuged at 400 g for 5 min, supernatant was discarded and the cells were washed once with 20 mL PBS. After the wash, the cells were resuspended in 25 mL IMDM (Sigma, 13390) supplemented with 20% FBS (JRH Biosciences), 100 IU/mL penicillin (Sigma), 100 μg/mL streptomycin (Sigma) and 2 mM L-glutamine (Sigma), and incubated overnight for recovery. The next morning, viability was determined by trypan blue exclusion and samples with viability lower than 85% underwent dead cell removal by density gradient centrifugation as follows: 15 mL of Lymphoprep (AXIS-Shield) was transferred to a 50 mL tube and the cell suspension (25 mL) carefully overlayed (so as not to disturb the interface mixing with the Lymphoprep). The tubes were centrifuged at 800 g for 20 min with acceleration set at 5 (half of the maximum) and no brake. MNC layer (formed in the interface between the media and the Lymphoprep) was transferred with a disposable Pasteur pipet into a 50 mL tube containing 20 mL PBS. […] Viability and cell density were determined by trypan blue exclusion and cells were plated for respective experiments as described in the Results section.
(§2) 2×10^5 cells (200 μL) were harvested in 5 mL tubes and washed 3 times with PBS. […] Results were analysed with FCS Express 4 Flow Research Edition software (De Novo Software). […]

[2] = system: primary AML samples (MNC); experiment: Viability (Annexin V/7AAD) assay, AML samples
Procedure: as §1, with “After the wash, the cells were resuspended in 25 mL IMDM (Sigma, 13390) supplemented with 20% FBS (JRH Biosciences), 100 IU/mL penicillin (Sigma), 100 μg/mL streptomycin (Sigma) and 2 mM L-glutamine (Sigma), and incubated overnight for recovery.” left out, “Lymphoprep).” for “Lymphoprep). The tubes were centrifuged at 800 g for 20 min with acceleration set at 5 (half of the maximum) and no brake. MNC layer (formed in the interface between the media and the Lymphoprep) was transferred with a disposable Pasteur pipet into a 50 mL tube containing 20 mL PBS.”
as §2

[3] = system: primary AML samples L-AML6 and L-AML419; experiment: Blast cell colony assay (Methocult); settings: 13 days
Procedure: 1.5 mL of Methocult H4034 (STEMCELL Technologies) was aliquoted in 5 mL tubes (one tube/treatment/sample) and supplemented with 20 ng/mL of hIL-6 (Peprotech, 200-06). EX 1 and OXi4503 dilutions were added to respective tubes to the final concentrations 100 nM and 500 nM. DMSO was used as vehicle control. Samples were added to each tube to the final cell density: 2×10^4 cells/well for L-AML6 and L-AML419, 3×10^3 cells/well for AML136 and AML480. The tubes were shaken to mix drugs and cells with the Methocult and incubated at 37° C. for 10 min to remove bubbles. Samples were then plated in 24-well plates, 4 wells/treatment/sample in the 8 wells at the centre of the plate. The wells at the edges were filled with sterile water to avoid drying. Plates were incubated at 37° C. for 13 days before colonies were counted.
Blast cell colony assay. For colony assays AML MNC were plated in methylcellulose with added cytokines (see Methods) and colonies scored after 13 days. […] L-AML419 also formed a small number of colonies in the DMSO-treated wells, with fewer background cells.

[4] = L-AML419, all doses (100 nM and 500 nM)

Row | Compound | viability (live cells, Annexin V/7AAD) ([1]; 48 h) | viability (live cells, Annexin V/7AAD) ([1]; up to 72 h) | viability (live cells, Annexin V/7AAD) ([2]; 48 h to 72 h) | colony formation ([3]; L-AML6, either dose (100 nM and 500 nM)) | colony formation [3, 4] | response to treatment (viability) [1] | response to treatment (viability) [2] | colony formation ([3]; L-AML6, 100 nM) | colony formation ([3]; L-AML6, 500 nM)
1 | COc1cc(C(=O)c2c(C)oc3c(O)c(OC)ccc23)cc(OC)c1OC [EX 1, 2-Methyl-7-hydroxy-3-(3,4,5-trimethoxybenzoyl)-6-methoxybenzofuran] | some reduced viability | viability remained stable | viability decreasing substantially | no colonies or background cells were observed; also recorded: Colony formation is blocked | completely blocked colony and background formation; also recorded: Colony formation is blocked |  |  |  | 
2 | COc1cc(/C=C\c2ccc(OC)c(OP(=O)(O)O)c2OP(=O)(O)O)cc(OC)c1OC [OXi4503, reference compound] |  |  |  |  | completely blocked colony and background formation; also recorded: completely inhibits colonies | did not show a response | did not show a response | reduced the background cells and also the number of colonies; also recorded: reduces colony formation | completely blocked colony formation; also recorded: completely inhibits colonies
